IC50 and GI50 data for 15 molecules are collected here from US20240239792A1, “MODULATORS OF BCL-2 OR BCL-2/BCL-XL AND USES THEREOF” (APPICINE THERAPEUTICS (HK) LIMITED, priority 2021, published 2024).

One assay has as its target T1, BCL-XL (Homo sapiens, UniProt Q07817).
T1 construct: purchased Cisbio 63ADK000CB04PEG
Briefly: HTRF BCL-XL/BAK assay (Cisbio). Type of assay: binding. Conditions: recombinant human Tag1-BCL-XL 2 nM, Tag2-BAK 5 nM. How it is done: (§1) Then the pre-mixed anti-Tag1-Eu^3+ and anti-tag2-XL665 were added to the plate and further incubated at room temperature for another 2 hours. The signals ([…]) were read on Envision 2104 instrument. The IC50 for each compound was derived from fitting the signal of 665/615 nM to the increasing compound concentration.
(§2) Using the above assays, the following compounds were tested.
On the technique in general: Time-resolved FRET reads energy transfer from a long-lived donor to a nearby acceptor.

The next assay deals with DOHH2 cells. Description: CellTiter-Glo cell proliferation assay, DOHH2 cells. Conditions: Homo sapiens, DOHH-2, 72 hours. The class given is cell-based. How it is done: The CellTiter-Glo® Luminescent Cell Viability Assay (Promega, G7573) was used to study the cellular potency of disclosed compounds herein. The cells were harvested during the logarithmic growth period and counted with hemocytometer. The DOHH2 cells were seeded at 1.6*10^4 in 90 ul DMEM medium supplemented with 10% fetal bovine serum (FBS) (as RS4;11 cells were seeded at 4000 in 90 ul RPMI-1640 medium with 10% FBS) per well in 96-well plates and treated with 10 ul of a serial dilution of compounds disclosed herein (maximum concentration and dilution ratio determined by the results of pre-experiment may vary) for 72 hours in a 5% CO2 incubator at 37° C. Cell viability was assessed according to the manufacturer's recommendations. After the plates return to the room temperature, 100 ul of CellTiter-Glo® reagent was added to 100 ul of cell culture. The mixture was agitated on an orbital shaker for 2 minutes or placed it at room temperature for 10 minutes to allow cell lysis and stabilization of luminescent signals. Luminescent signals were recorded using Envision 2104 instrument. And GI50 values were then calculated.
Background: ATP-based viability assays read luminescence as a measure of living cells.

Another assay deals with T2, BCL-2 (Homo sapiens, UniProt P10415).
T2 construct: purchased Cisbio 63ADK000CB01PEG
T2 sequence (P10415 whole entry): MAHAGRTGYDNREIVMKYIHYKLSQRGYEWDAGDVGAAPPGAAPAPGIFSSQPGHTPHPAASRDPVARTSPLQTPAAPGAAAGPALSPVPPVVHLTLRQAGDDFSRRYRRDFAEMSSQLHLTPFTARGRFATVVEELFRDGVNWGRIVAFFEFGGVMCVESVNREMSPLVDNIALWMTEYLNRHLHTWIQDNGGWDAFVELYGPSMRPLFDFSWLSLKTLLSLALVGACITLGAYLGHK
Briefly: HTRF BCL-2/BAK assay (Cisbio). The class given is binding. The following applies: recombinant human Tag1-BCL-2 2 nM, Tag2-BAK 10 nM. How it is done: as §1, §2

As usually defined, the IC50 is the midpoint of a concentration-inhibition curve. Broadly, the GI50 is the concentration giving 50% growth inhibition.

T1 sequence (Q07817 whole entry): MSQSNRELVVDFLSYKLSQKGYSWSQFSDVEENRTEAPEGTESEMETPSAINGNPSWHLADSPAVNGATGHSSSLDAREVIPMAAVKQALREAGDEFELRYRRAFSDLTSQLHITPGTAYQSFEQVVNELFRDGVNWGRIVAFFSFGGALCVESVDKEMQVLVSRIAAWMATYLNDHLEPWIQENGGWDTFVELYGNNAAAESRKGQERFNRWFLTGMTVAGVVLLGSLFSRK

Turning to `O=C(O)CN1CCC2(CC1)CC(CNc1ccc(S(=O)(=O)NC(=O)c3ccc(N4CCN([C@@H]5CCCCc6c(Cl)cccc65)CC4)cc3Oc3cnc4[nH]ccc4c3)cc1[N+](=O)[O-])C2` [Compound 123, (R)-2-(2-(((4-(N-(2-((1H-pyrrolo[2,3-b]pyridin-5-yl)oxy)-4-(4-(1-chloro-6,7,8,9-tetrahydro-5H-benzo[7]annulen-5-yl)piperazin-1-yl)benzoyl)sulfamoyl)-2-nitrophenyl)amino)methyl)-7-azaspiro[3.5]nonan-7-yl)acetic acid], the IC50 at BCL-XL and at BCL-2 was less than 0.02 µM in each case. In the assay on DOHH2 cells, this molecule yielded a GI50 of 0.05 to 0.5 µM.

`CC(=O)N1CCC2(CC1)CC(CNc1ccc(S(=O)(=O)NC(=O)c3ccc(N4CCN([C@@H]5CCCCc6c(Cl)cccc65)CC4)cc3Oc3cnc4[nH]ccc4c3)cc1[N+](=O)[O-])C2` [Compound 111, (R)-2-((1H-pyrrolo[2,3-b]pyridin-5-yl)oxy)-N-((4-(((7-acetyl-7-azaspiro[3.5]nonan-2-yl)methyl)amino)-3-nitrophenyl)sulfonyl)-4-(4-(1-chloro-6,7,8,9-tetrahydro-5H-benzo[7]annulen-5-yl)piperazin-1-yl)benzamide]: the 50% inhibitory concentration (IC50) was 0.02 to 0.2 µM at BCL-XL and less than 0.02 µM at BCL-2. Besides, the GI50 with DOHH2 cells is less than 0.05 µM.

In the case of `O=C(NS(=O)(=O)c1ccc(NCC2CCOCC2)c([N+](=O)[O-])c1)c1ccc(N2CCN(C3CCCCc4cc(Cl)ccc43)CC2)cc1Oc1cnc2[nH]ccc2c1` (centres unmarked) [Compound 25, 2-((1H-pyrrolo[2,3-b]pyridin-5-yl)oxy)-4-(4-(2-chloro-6,7,8,9-tetrahydro-5H-benzo[7]annulen-5-yl)piperazin-1-yl)-N-((3-nitro-4-(((tetrahydro-2H-pyran-4-yl)methyl)amino)phenyl)sulfonyl)benzamide], the IC50 on BCL-XL lay within 0.2 to 2 µM; on BCL-2, 0.02 to 0.2 µM. In addition, the GI50 with DOHH2 cells lay within 0.05 to 0.5 µM.

As for `O=C(NS(=O)(=O)c1ccc(NCC2CCOCC2)c([N+](=O)[O-])c1)c1ccc(N2CCN(C3CCCCc4c(-c5ccn[nH]5)cccc43)CC2)cc1Oc1cnc2[nH]ccc2c1` (centres unmarked) [Compound 54, 4-(4-(1-(1H-pyrazol-3-yl)-6,7,8,9-tetrahydro-5H-benzo[7]annulen-5-yl)piperazin-1-yl)-2-((1H-pyrrolo[2,3-b]pyridin-5-yl)oxy)-N-((3-nitro-4-(((tetrahydro-2H-pyran-4-yl)methyl)amino)phenyl)sulfonyl)benzamide], the IC50 at BCL-XL is greater than 2 µM; at BCL-2, less than 0.02 µM. For the same molecule, the concentration for 50% growth inhibition (GI50) in the assay on DOHH2 cells lay within 0.5 to 5 µM.

Consider `NCCN1CCC2(CC1)CC(CNc1ccc(S(=O)(=O)NC(=O)c3ccc(N4CCN([C@@H]5CCCCc6c(Cl)cccc65)CC4)cc3)cc1[N+](=O)[O-])C2` [Compound 120, (R)-N-((4-(((7-(2-aminoethyl)-7-azaspiro[3.5]nonan-2-yl)methyl)amino)-3-nitrophenyl)sulfonyl)-4-(4-(1-chloro-6,7,8,9-tetrahydro-5H-benzo[7]annulen-5-yl)piperazin-1-yl)benzamide], for which the IC50 at BCL-XL and on BCL-2 was 0.02 to 0.2 µM each time. Further, in the assay on DOHH2 cells, the GI50 fell in the range of 0.5 to 5 µM.

As for `O=C(NS(=O)(=O)c1ccc(NCC2CCC3(CC2)COC3)c([N+](=O)[O-])c1)c1ccc(N2CCN(C3CCCCc4c(Cl)cccc43)CC2)cc1Oc1cnc2[nH]ccc2c1` (centres unmarked) [Compound 38, 2-((1H-pyrrolo[2,3-b]pyridin-5-yl)oxy)-N-((4-(((2-oxaspiro[3.5]nonan-7-yl)methyl)amino)-3-nitrophenyl)sulfonyl)-4-(4-(1-chloro-6,7,8,9-tetrahydro-5H-benzo[7]annulen-5-yl)piperazin-1-yl)benzamide], the 50% inhibitory concentration (IC50) is 0.2 to 2 µM on BCL-XL and less than 0.02 µM at BCL-2. This molecule also gave a GI50 in the assay on DOHH2 cells of less than 0.05 µM.

As for `CCOC(=O)CCN1CCC2(CC1)CC(CNc1ccc(S(=O)(=O)NC(=O)c3ccc(N4CCN([C@@H]5CCCCc6c(Cl)cccc65)CC4)cc3Oc3cnc4[nH]ccc4c3)cc1[N+](=O)[O-])C2` [Compound 130, ethyl (R)-3-(2-(((4-(N-(2-((1H-pyrrolo[2,3-b]pyridin-5-yl)oxy)-4-(4-(1-chloro-6,7,8,9-tetrahydro-5H-benzo[7]annulen-5-yl)piperazin-1-yl)benzoyl)sulfamoyl)-2-nitrophenyl)amino)methyl)-7-azaspiro[3.5]nonan-7-yl)propanoate], the concentration for half-maximal inhibition (IC50) on BCL-XL and at BCL-2 was less than 0.02 µM throughout. In addition, in the assay with DOHH2 cells, the GI50 was less than 0.05 µM.

As for `CC(=O)N1CCC2(CC1)CC(CNc1ccc(S(=O)(=O)NC(=O)c3ccc(N4CCN([C@@H]5CCCCc6c(Cl)cccc65)CC4)cc3)cc1[N+](=O)[O-])C2` [Compound 118, (R)-N-((4-(((7-acetyl-7-azaspiro[3.5]nonan-2-yl)methyl)amino)-3-nitrophenyl)sulfonyl)-4-(4-(1-chloro-6,7,8,9-tetrahydro-5H-benzo[7]annulen-5-yl)piperazin-1-yl)benzamide], the values for the half-maximal inhibitory concentration (IC50) on BCL-XL and on BCL-2 were greater than 2 µM and 0.2 to 2 µM, respectively.

Regarding `CN1CC2CC1CN2CCNc1ccc(S(=O)(=O)NC(=O)c2ccc(N3CCN(C4CCCCc5c(Cl)cccc54)CC3)cc2Oc2cnc3[nH]ccc3c2)cc1[N+](=O)[O-]` (centres unmarked) [Compound 43, 2-((1H-pyrrolo[2,3-b]pyridin-5-yl)oxy)-4-(4-(1-chloro-6,7,8,9-tetrahydro-5H-benzo[7]annulen-5-yl)piperazin-1-yl)-N-((4-((2-(5-methyl-2,5-diazabicyclo[2.2.1]heptan-2-yl)ethyl)amino)-3-nitrophenyl)sulfonyl)benzamide], the IC50 at BCL-XL and at BCL-2 was less than 0.02 µM throughout. In the assay on DOHH2 cells, this molecule showed a GI50 of 0.05 to 0.5 µM.

In the case of `Cc1ccc(S(=O)(=O)N2CCc3ccccc3C(N3CCN(c4ccc(C(=O)NS(=O)(=O)c5ccc(NCC6CCOCC6)c([N+](=O)[O-])c5)c(Oc5cnc6[nH]ccc6c5)c4)CC3)C2)cc1` (centres unmarked) [Compound 35, 2-((1H-pyrrolo[2,3-b]pyridin-5-yl)oxy)-N-((3-nitro-4-(((tetrahydro-2H-pyran-4-yl)methyl)amino)phenyl)sulfonyl)-4-(4-(3-tosyl-2,3,4,5-tetrahydro-1H-benzo[d]azepin-1-yl)piperazin-1-yl)benzamide], the IC50 at BCL-XL was 0.2 to 2 µM; at BCL-2, 0.02 to 0.2 µM. For the same molecule, the GI50 in the assay with DOHH2 cells fell in the range of 0.5 to 5 µM.

In the case of `O=C(NS(=O)(=O)c1cccc([N+](=O)[O-])c1)c1ccc(N2CCN(C3CCCc4cccc(-c5ccc(Cl)cc5)c43)CC2)cc1Oc1cnc2[nH]ccc2c1` (centres unmarked) [Compound 13, 2-((1H-pyrrolo[2,3-b]pyridin-5-yl)oxy)-4-(4-(8-(4-chlorophenyl)-1,2,3,4-tetrahydronaphthalen-1-yl)piperazin-1-yl)-N-((3-nitrophenyl)sulfonyl)benzamide], the figures for the half-maximal inhibitory concentration (IC50) at BCL-XL and at BCL-2 were 0.2 to 2 µM and 0.02 to 0.2 µM, respectively. Also, in the assay with DOHH2 cells, the GI50 was 0.5 to 5 µM.

Take `NCCN1CCC2(CC1)CC(CNc1ccc(S(=O)(=O)NC(=O)c3ccc(N4CCN([C@@H]5CCCCc6c(Cl)cccc65)CC4)cc3Oc3cnc4[nH]ccc4c3)cc1[N+](=O)[O-])C2` [Compound 110, (R)-2-((1H-pyrrolo[2,3-b]pyridin-5-yl)oxy)-N-((4-(((7-(2-aminoethyl)-7-azaspiro[3.5]nonan-2-yl)methyl)amino)-3-nitrophenyl)sulfonyl)-4-(4-(1-chloro-6,7,8,9-tetrahydro-5H-benzo[7]annulen-5-yl)piperazin-1-yl)benzamide]: the IC50 on BCL-XL and at BCL-2 was less than 0.02 µM in each case. In addition, the GI50 in the assay on DOHH2 cells was less than 0.05 µM.

In the case of `CC(C)(C)OC(=O)N1CCC2(CC1)CC(CNc1ccc(S(=O)(=O)NC(=O)c3ccc(N4CCN([C@@H]5CCCCc6c(Cl)cccc65)CC4)cc3)cc1[N+](=O)[O-])C2` [Compound 116, tert-butyl (R)-2-(((4-(N-(4-(4-(1-chloro-6,7,8,9-tetrahydro-5H-benzo[7]annulen-5-yl)piperazin-1-yl)benzoyl)sulfamoyl)-2-nitrophenyl)amino)methyl)-7-azaspiro[3.5]nonane-7-carboxylate], the half-inhibitory concentration (IC50) at BCL-XL and at BCL-2 was greater than 2 µM in each case.

Take `Nc1cccc2c1CCCCC2N1CCN(c2ccc(C(=O)NS(=O)(=O)c3ccc(NCC4CCOCC4)c([N+](=O)[O-])c3)c(Oc3cnc4[nH]ccc4c3)c2)CC1` (centres unmarked) [Compound 58, 2-((1H-pyrrolo[2,3-b]pyridin-5-yl)oxy)-4-(4-(1-amino-6,7,8,9-tetrahydro-5H-benzo[7]annulen-5-yl)piperazin-1-yl)-N-((3-nitro-4-(((tetrahydro-2H-pyran-4-yl)methyl)amino)phenyl)sulfonyl)benzamide]: the GI50 in the assay on DOHH2 cells lay in the range of 0.5 to 5 µM. Also, the 50% inhibitory concentration (IC50) at BCL-2 is less than 0.02 µM.

In turn, `O=C(NS(=O)(=O)c1ccc(NCC2CCOCC2)c([N+](=O)[O-])c1)c1ccc(N2CCN(C3CCOc4ccccc43)CC2)cc1Oc1cnc2[nH]ccc2c1` (centres unmarked) [Compound 17, 2-((1H-pyrrolo[2,3-b]pyridin-5-yl)oxy)-4-(4-(chroman-4-yl)piperazin-1-yl)-N-((3-nitro-4-(((tetrahydro-2H-pyran-4-yl)methyl)amino)phenyl)sulfonyl)benzamide] yielded a GI50 in the assay with DOHH2 cells of 0.5 to 5 µM. Also, the half-inhibitory concentration (IC50) at BCL-2 lay within 0.02 to 0.2 µM.
